# Experimental data taken from patent publication US8765773B2, “Substituted hydroxamic acids and uses thereof” (Millennium Pharmaceuticals, Inc., priority 2010, dated 2014).
# Molecular target: T1, purified human HDAC6 (Homo sapiens, UniProt Q9UBN7)
# T1 construct: purchased BPS Bioscience 5006
# T1 sequence (Q9UBN7 1-1215): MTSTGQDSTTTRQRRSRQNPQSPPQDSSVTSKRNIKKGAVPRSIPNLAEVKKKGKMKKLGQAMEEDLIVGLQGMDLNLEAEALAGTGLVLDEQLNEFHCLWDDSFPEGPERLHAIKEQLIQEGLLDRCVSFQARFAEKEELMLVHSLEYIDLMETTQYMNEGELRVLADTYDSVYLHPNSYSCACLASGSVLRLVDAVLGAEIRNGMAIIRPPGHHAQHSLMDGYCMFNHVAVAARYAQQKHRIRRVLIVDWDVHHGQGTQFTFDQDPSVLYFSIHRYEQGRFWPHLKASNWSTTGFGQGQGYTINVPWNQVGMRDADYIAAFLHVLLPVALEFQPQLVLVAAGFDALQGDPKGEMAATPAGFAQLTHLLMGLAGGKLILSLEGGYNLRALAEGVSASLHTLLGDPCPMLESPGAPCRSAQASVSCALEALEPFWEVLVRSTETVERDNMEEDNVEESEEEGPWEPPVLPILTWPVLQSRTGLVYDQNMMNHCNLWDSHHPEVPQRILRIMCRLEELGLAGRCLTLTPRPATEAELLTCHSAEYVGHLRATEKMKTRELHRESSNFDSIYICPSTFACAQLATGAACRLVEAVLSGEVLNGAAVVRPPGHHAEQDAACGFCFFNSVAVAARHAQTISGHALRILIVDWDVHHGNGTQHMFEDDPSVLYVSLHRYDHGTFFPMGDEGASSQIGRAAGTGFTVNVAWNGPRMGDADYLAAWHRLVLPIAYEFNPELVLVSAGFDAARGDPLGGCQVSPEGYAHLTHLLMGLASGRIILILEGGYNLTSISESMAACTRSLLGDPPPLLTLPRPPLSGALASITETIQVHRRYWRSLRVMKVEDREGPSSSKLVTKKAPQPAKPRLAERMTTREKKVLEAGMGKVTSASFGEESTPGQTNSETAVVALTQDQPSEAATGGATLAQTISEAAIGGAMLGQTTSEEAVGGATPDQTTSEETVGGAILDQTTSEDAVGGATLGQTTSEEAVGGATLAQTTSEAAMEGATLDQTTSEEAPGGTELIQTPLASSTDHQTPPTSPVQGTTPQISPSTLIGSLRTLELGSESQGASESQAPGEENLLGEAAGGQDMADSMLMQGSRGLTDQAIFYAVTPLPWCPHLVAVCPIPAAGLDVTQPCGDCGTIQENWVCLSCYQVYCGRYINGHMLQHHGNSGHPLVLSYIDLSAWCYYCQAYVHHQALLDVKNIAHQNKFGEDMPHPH
# Assay: HDAC6 Enzyme Assay
# Assay type: biochemical
# Conditions: compound concentration 0.37 μM, read-out: Percent Inhibition
# Summary of the method: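 Purified human HDAC6 incubated 1 h at 30° C with Ac-Arg-Gly-Lys(Ac)-AMC peptide plus compound or DMSO; stopped with trichostatin A. Deacetylated product trypsin-digested, released AMC read by fluorescence (Ex 340/Em 460 nm). Percent inhibition at one concentration or IC50 from curves relative to DMSO controls.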
row,SMILES,inhibition at 0.37 µM
1,"CC(c1ccccc1C(F)(F)F)n1ccc2ccc(C(=O)NO)cc2c1=O (stereo not drawn) [Compound I-224, N-hydroxy-1-oxo-2-{1-[2-(trifluoromethyl)phenyl]ethyl}-1,2-dihydroisoquinoline-7-carboxamide]",96.3%
2,"CC(C)c1cccc(-c2cccc(Cn3cnc4ccc(C(=O)NO)cc4c3=O)c2)c1 [Compound I-182, N-hydroxy-3-[(3′-isopropylbiphenyl-3-yl)methyl]-4-oxo-3,4-dihydroquinazoline-6-carboxamide]",78.9%
3,"COc1ccc(-c2cccc(CCn3cnc4ccc(C(=O)NO)cc4c3=O)c2)cn1 [Compound I-329, N-hydroxy-3-{2-[3-(6-methoxypyridin-3-yl)phenyl]ethyl}-4-oxo-3,4-dihydroquinazoline-6-carboxamide]",92.6%
4,"CC(C)(C)OC(=O)NCCCn1ccc2ccc(C(=O)NO)cc2c1=O [Compound I-245, tert-butyl {3-[7-[(hydroxyamino)carbonyl]-1-oxoisoquinolin-2(1H)-yl]propyl}carbamate]",94.5%
5,"O=C(NO)c1ccc2ccn(Cc3ccc(-n4cccc4)cc3)c(=O)c2c1 [Compound I-305, N-hydroxy-1-oxo-2-[4-(1H-pyrrol-1-yl)benzyl]-1,2-dihydroisoquinoline-7-carboxamide]",99%
6,"COCc1cn(Cc2ccccc2)c(=O)c2cc(C(=O)NO)ccc12 [Compound I-394, 2-benzyl-N-hydroxy-4-(methoxymethyl)-1-oxo-1,2-dihydroisoquinoline-7-carboxamide]",49.2%

# Other lines, results leading:
row,inhibition at 0.37 µM,SMILES
1,96.8%,"CC(C)C(c1ccccc1)n1cnc2ccc(C(=O)NO)cc2c1=O (stereo not drawn) [Compound I-338, N-hydroxy-3-(2-methyl-1-phenylpropyl)-4-oxo-3,4-dihydroquinazoline-6-carboxamide]"
2,90%,"O=C(NO)c1ccc2c(=O)[nH]c(C3CCCCC3)nc2c1 [Compound I-416, 2-cyclohexyl-N-hydroxy-4-oxo-3,4-dihydroquinazoline-7-carboxamide]"
3,68.1%,"COc1ccncc1-c1nc2cc(C(=O)NO)ccc2c(=O)[nH]1 [Compound I-410, N-hydroxy-2-(4-methoxypyridin-3-yl)-4-oxo-3,4-dihydroquinazoline-7-carboxamide]"

# Same assay, conditions: compound concentration 0.412 μM, read-out: Percent Inhibition
row,SMILES,inhibition at 0.412 µM
1,"O=C(NO)c1ccc2ncn(Cc3csc4ccc(Cl)cc34)c(=O)c2c1 [Compound I-164, 3-[(5-chloro-1-benzothien-3-yl)methyl]-N-hydroxy-4-oxo-3,4-dihydroquinazoline-6-carboxamide]",94.1%
2,"O=C(NO)c1ccc2ccn(Cc3cccc(F)c3F)c(=O)c2c1 [Compound I-24, 2-(2,3-difluorobenzyl)-N-hydroxy-1-oxo-1,2-dihydroisoquinoline-7-carboxamide]",93.7%
3,"O=C(NO)c1ccc2ncn(Cc3cccc(OC(F)(F)F)c3)c(=O)c2c1 [Compound I-55, N-hydroxy-4-oxo-3-[3-(trifluoromethoxy)benzyl]-3,4-dihydroquinazoline-6-carboxamide]",93.9%
4,"O=C(NO)c1ccc2ccn(Cc3cccc(OCc4ccccc4)c3)c(=O)c2c1 [Compound I-31, 2-[3-(benzyloxy)benzyl]-N-hydroxy-1-oxo-1,2-dihydroisoquinoline-7-carboxamide]",89.5%
5,"O=C(NO)c1ccc2ccn(CCCc3c[nH]c4ccccc34)c(=O)c2c1 [Compound I-95, N-hydroxy-2-[3-(1H-indol-3-yl)propyl]-1-oxo-1,2-dihydroisoquinoline-7-carboxamide]",98.1%
6,"O=C(NO)c1ccc2ccn(CCOc3cc(C(F)(F)F)cc(C(F)(F)F)c3)c(=O)c2c1 [Compound I-91, 2-{2-[3,5-bis(trifluoromethyl)phenoxy]ethyl}-N-hydroxy-1-oxo-1,2-dihydroisoquinoline-7-carboxamide]",86.9%
7,"Cc1nc(-c2ccccc2OCCn2ccc3ccc(C(=O)NO)cc3c2=O)cs1 [Compound I-27, N-hydroxy-2-{2-[2-(2-methyl-1,3-thiazol-4-yl)phenoxy]ethyl}-1-oxo-1,2-dihydroisoquinoline-7-carboxamide]",98.6%
8,"COc1ccc(CCCn2ccc3ccc(C(=O)NO)cc3c2=O)cc1 [Compound I-140, N-hydroxy-2-[3-(4-methoxyphenyl)propyl]-1-oxo-1,2-dihydroisoquinoline-7-carboxamide]",96.5%
9,"O=C(NO)c1ccc2ccn(Cc3cccc(OC(F)(F)F)c3)c(=O)c2c1 [Compound I-14, N-hydroxy-1-oxo-2-[3-(trifluoromethoxy)benzyl]-1,2-dihydroisoquinoline-7-carboxamide]",95.1%
10,"O=C(NO)c1ccc2ccn(CCOc3ccccc3C(F)(F)F)c(=O)c2c1 [Compound I-175, N-hydroxy-1-oxo-2-{2-[2-(trifluoromethyl)phenoxy]ethyl}-1,2-dihydroisoquinoline-7-carboxamide]",95.9%

# Next, values leading:
row,inhibition at 0.412 µM,SMILES
1,93.5%,"O=C(NO)c1ccc2ncn(Cc3cccc(F)c3)c(=O)c2c1 [Compound I-111, 3-(3-fluorobenzyl)-N-hydroxy-4-oxo-3,4-dihydroquinazoline-6-carboxamide]"
2,40.3%,"COc1ccc2ccc(OCc3nc4cc(C(=O)NO)ccc4c(=O)[nH]3)cc2c1 [Compound I-225, N-hydroxy-2-{[(7-methoxy-2-naphthyl)oxy]methyl}-4-oxo-3,4-dihydroquinazoline-7-carboxamide]"
3,96.4%,"O=C(NO)c1ccc2ccn(Cc3cc(F)ccc3F)c(=O)c2c1 [Compound I-198, 2-(2,5-difluorobenzyl)-N-hydroxy-1-oxo-1,2-dihydroisoquinoline-7-carboxamide]"
4,86.5%,"O=C(NO)c1ccc2ccn(C3CCCC3)c(=O)c2c1 [Compound I-105, 2-cyclopentyl-N-hydroxy-1-oxo-1,2-dihydroisoquinoline-7-carboxamide]"
5,76.7%,"O=C(NO)c1ccc2c(=O)[nH]c(COc3cc(Cl)cc(Cl)c3)nc2c1 [Compound I-145, 2-[(3,5-dichlorophenoxy)methyl]-N-hydroxy-4-oxo-3,4-dihydroquinazoline-7-carboxamide]"
6,94.5%,"Cc1ccc(Cn2ccc3ccc(C(=O)NO)cc3c2=O)cc1F [Compound I-54, 2-(3-fluoro-4-methylbenzyl)-N-hydroxy-1-oxo-1,2-dihydroisoquinoline-7-carboxamide]"
7,94.8%,"Cc1cccc(Cn2ccc3ccc(C(=O)NO)cc3c2=O)c1 [Compound I-120, N-hydroxy-2-(3-methylbenzyl)-1-oxo-1,2-dihydroisoquinoline-7-carboxamide]"
8,70.9%,"O=C(NO)c1ccc2cc[nH]c(=O)c2c1 [Compound I-232, N-hydroxy-1-oxo-1,2-dihydroisoquinoline-7-carboxamide]"
9,94.1%,"O=C(NO)c1ccc2ccn(Cc3ccccc3)c(=O)c2c1 [Compound I-219, 2-benzyl-N-hydroxy-1-oxo-1,2-dihydroisoquinoline-7-carboxamide]"
10,97.5%,"O=C(NO)c1ccc2ccn(Cc3nc4ccccc4s3)c(=O)c2c1 [Compound I-272, 2-(1,3-benzothiazol-2-ylmethyl)-N-hydroxy-1-oxo-1,2-dihydroisoquinoline-7-carboxamide]"
11,67.6%,"Cn1ccc2ccc(C(=O)NO)cc2c1=O [Compound I-287, N-hydroxy-2-methyl-1-oxo-1,2-dihydroisoquinoline-7-carboxamide]"
12,88.1%,"CCOCCn1cnc2cc(C(=O)NO)ccc2c1=O [Compound I-276, 3-(2-ethoxyethyl)-N-hydroxy-4-oxo-3,4-dihydroquinazoline-7-carboxamide]"
13,65.8%,"CC(C)c1nc2cc(C(=O)NO)ccc2c(=O)[nH]1 [Compound I-214, N-hydroxy-2-isopropyl-4-oxo-3,4-dihydroquinazoline-7-carboxamide]"
14,96.1%,"O=C(NO)c1ccc2ncn(Cc3cccc(Cl)c3)c(=O)c2c1 [Compound I-127, 3-(3-chlorobenzyl)-N-hydroxy-4-oxo-3,4-dihydroquinazoline-6-carboxamide]"
